Test results taken from publication PMC7767381, “Exploring the Anti-Cancer Mechanism of Novel 3,4′-Substituted Diaryl Guanidinium Derivatives” (Pharmaceuticals, 2020).
“Also recorded” adds a separate entry of the source. Where a name gives a salt, the structure may show the parent alone.

Key:
HL-60 cells = experiment: alamarBlue cell viability assay, HL-60; type: cell-based; details: Homo sapiens, HL-60, 72 h, alamarBlue, 72 h; read-out: HL-60 IC50 ± SEM
Text: Cell viability and proliferation assays were used to evaluate the in vitro cytotoxicity of all synthesised compounds in a variety of different cancer cell lines using the alamarBlue® viability assay and the results are presented in Table 1 and Table 2. The sensitivity of cancer cells to drugs can often be compromised by PIK3CA, Ras and BRAF mutations. To determine whether such mutations are critical to the efficacy of our new compounds we tested them in a range of cancerous cell lines expressing different mutations. Firstly, we used the HL-60 (human promyelocytic leukaemia, NRas mutated) cell line for general cytotoxicity screening of all compounds. […] Lastly, toxicity against MCF-10A, which is a non-tumorigenic epithelial cell line, was also assessed for one of the most promising compounds (4). The graphs representing the viability results with the HL-60, MCF-7, HeLa, HCT-116, and HKH-2 cancer cell lines for compound 1 and derivatives 2, 3, and 4 are shown in Figures S7–S10 (ESI).
Cells were counted and seeded in 96-well plates at a density of 2 × 10^5 cells/mL for HL-60, 2.5 × 10^4 cells/mL for MCF-7, MCF10A and HeLa, 1 × 10^5 cells/mL for HCT116 and HKH-2, all of them in their respective media. The 96-well plates were then treated with a 1:100 dilution of stock concentrations of drugs or EtOH (1% v/v)/DMSO (0.1% v/v) as vehicle control in triplicate. Three blank wells containing 200 µL RPMI with no cells were also set-up as blanks. After a 72 h incubation, 20 µL of alamarBlue was added to each well. The plates were incubated in darkness at 37 °C for 4–5 h using a Molecular Devices microplate reader, the fluorescence (F) was then read at an excitation wavelength of 544 nm and an emission wavelength of 590 nm. Cell viability was then determined by subtracting the mean blank fluorescence (Fb) from the treated sample fluorescence (Fs) and expressing this as a percentage of the fluorescence of the blanked vehicle control (Fc). […] The results were then plotted as a nonlinear regression, sigmoidal dose-response curves on Prism, from which the IC50 value for each drug was determined. […]
Pharmacy, TCD. It was maintained in Roswell Park Memorial Institute (RPMI) 1640 medium with stable glutamate (GlutaMax I) supplemented with 10% (v/v) fetal bovine serum (FBS), 1% (v/v) penicillin/ streptomycin (pen-strep) and 2 mM L-glutamine. […]
4.4. AlamarBlue ® Cell Viability Assay
Cells were counted and seeded in 96 well plates at a density of 2 × 10^5 cells/mL for HL-60, 2.5× 10^4 cells/mL for MCF-7, MCF10A and HeLa, 1 × 10^5 cells/mL for HCT116 and HKH-2, all of them in their respective media. The 96 well plates were then treated with a 1:100 dilution of stock concentrations of drugs or EtOH (1% v/v)/DMSO (0.1% v/v) as vehicle control in triplicate.
Three blank wells containing 200 µL media with no cells were also set-up as blanks. After a 72 h incubation, 20 µL of AlamarBlue was added to each well. The plates were incubated in darkness at 37 °C for 4-5 h. Using a Molecular Devices microplate reader, the fluorescence (F) was then read at an excitation wavelength of 544 nm and an emission wavelength of 590 nm.
Cell viability was then determined by subtracting the mean blank fluorescence (Fb) from the treated sample fluorescence (Fs) and expressing this as a percentage of the fluorescence of the blanked vehicle control (Fc). […] The results were […]
then plotted as a nonlinear regression, sigmoidal dose-response curves on Prism, from which the IC50 value for each drug was determined.
Fs − Fb x 100 = % Cell Viability
60 cell line in a dose-dependent manner.
(1 picture or pasted object on this page, not shown here)

[1] = system: ERK phosphorylation (MAPK/ERK pathway); experiment: Western immunoblot of ERK phosphorylation in HL-60 extracts; type: cell-based, human; details: HL-60, 5 µM, 16 h
Protocol: Thus, using Western immunoblot analysis of HL-60 extracts, we investigated the expression and phosphorylation levels of ERK (as an indication of ERK activation), which is the downstream effector of the Ras/BRAF signalling pathway (Figure 6).
HL60s were seeded in T25 flasks at 50 × 10^4 cells/mL and cells were treated with either vehicle [0.5% EtOH (v/v)], 1–4, 9 or 52 (5 µM), as well as 1 (10 µM as reported). After 16 h, cells were collected and washed with PBS. Cell pellets were re-suspended in cold cell lysis buffer (radio-immunoprecipitation assay buffer) supplemented with 1% phosphatase inhibitor cocktail 2 and 3 (Sigma) and 10% protease inhibitor (Roche). Cells were lysed for 30 min on ice. Protein concentration was then determined by BCA assay. Lysates were boiled with Laemmli sample buffer [Tris-HCL 50 mM (pH 6.7), glycerol 10% (w/v), sodium dodecyl sulphate 2% (w/v), bromophenol blue 0.02% (w/v)] containing DTT […] for 10 min at 90 °C. Moreover, 20 µg of lysates were resolved by sodium dodecyl sulphate polyacrylamide gel electrophoresis (SDS-PAGE) and transferred onto PVDF transfer membrane (EMD Millipore). Membranes were blocked with 5% non-fat milk and probed with primary antibodies for ERK and phospho-ERK (Cell Signalling). Anti-GAPDH was used as a loading control (Calbiochem).
Figure 6 Western immunoblot of HL-60 cell extracts following incubation with compounds 2, 3, 4, 9, 52 and 1 (as a control). HL60 cells were seeded at 2 × 10^5 cells/mL and were treated with either vehicle [0.5% EtOH (v/v)], compounds 52, 2, 9, 3 and 4 (5 µM) or compound 1 (5 and (*) 10 µM, as in reference) for 16 h. Cells were lysed and equal amounts of protein were loaded and separated on 15% SDS-PAGE gels, transferred to PVDF membrane and probed with antibodies against total and phosphorylated ERK. Anti-GAPDH was used as a loading control. Results are representative of 2 independent experiments.
HL-60 cells were seeded in T25 flasks at 50 x10^4 cells/mL and treated with either vehicle [0.5% […]
After 16 hours, cells were […]
collected and washed with PBS. Cell pellets were re-suspended in cold cell lysis buffer (radio-immunoprecipitation assay buffer) supplemented with 1% phosphatase inhibitor cocktail 2 and 3 (Sigma) and 10% protease inhibitor (Roche). Cells were lysed for 30 minutes on ice.
Protein concentration was then determined by BCA assay. Lysates were boiled with laemmli sample buffer [Tris-HCL 50 mM (pH 6.7), glycerol 10% (w/v), sodium dodecyl sulphate 2% (w/v), bromophenol blue 0.02% (w/v)] containing DTT […] for 10 min. at 90 °C. Also 20 µg of lysates were resolved by sodium dodecyl sulphate polyacrylamide gel electrophoresis (SDS - PAGE) and transferred onto PVDF transfer membrane (EMD Millipore). Membranes were blocked with 5% non-fat milk and probed with primary antibodies for ERK and phospho-ERK (Cell Signaling). Anti-GAPDH was used as a loading control (Calbiochem).

Structure (SMILES) | melting point [°C] | IC50 (HL-60 cells) [µM] | effect on ERK phosphorylation (Ras/BRAF pathway) [1]
N=C(N)Nc1ccc(Oc2cccc(NC(=N)Nc3ccc(F)c(F)c3)c2)cc1 (as salt: hydrochloride) [Compound 6, 1-(3:4-Di-fluorophenyl)-2-(3-(4-guanidinophenoxy)phenyl)guanidine dihydrochloride] | 158 to 160 | – | –
N=C(N)Nc1ccc(Oc2cc(F)cc(Nc3ccc(Cl)c(C(F)(F)F)c3)c2)cc1 (as salt: hydrochloride) [Compound 36, 1-(4-(3-((4-Chloro-3-(trifluormethyl)phenyl)amino)-5-fluorophenoxy)phenyl)guanidine hydrochloride] | 92 to 94 | – | –
N=C(N)Nc1ccc(Oc2cccc(N=C(N)Nc3ccc(F)cc3)c2)cc1 [Compound 5, 1-(4-Fluorophenyl)-2-(3-(4-guanidinophenoxy)phenyl)guanidine dihydrochloride] | – | > 100 | –
N=C(N)Nc1ccc(Oc2cccc(NC(=N)Nc3ccc(F)c(F)c3)c2)cc1 [Compound 6, 1-(3:4-Di-fluorophenyl)-2-(3-(4-guanidinophenoxy)phenyl)guanidine dihydrochloride] | – | > 100 | –
N=C(N)Nc1ccc(Oc2cccc(N=C(N)Nc3ccc(I)cc3F)c2)cc1 [Compound 7, 1-(2-Fluoro-4-iodophenyl)-2-(3-(4-guanidinophenoxy)phenyl)guanidine dihydrochloride] | – | 8.63 ± 0.51 | –
N=C(N)Nc1ccc(Oc2cccc(N=C(N)Nc3ccc(Br)cc3)c2)cc1 [Compound 8, 1-(4-Bromophenyl)-2-(3-(4-guanidinophenoxy)phenyl)guanidine dihydrochloride] | – | 15.3 ± 1.98 | –
Cl.Cl.N=C(N)Nc1ccc(Oc2cccc(N=C(N)Nc3ccc(Br)c(C(F)(F)F)c3)c2)cc1 [Compound 9, 1-(4-Bromo-3-(trifluoromethyl)phenyl)-2-(3-(4-guanidinophenoxy)phenyl)guanidine dihydrochloride] | – | 2.07 ± 0.33 | inhibiting ERK phosphorylation; also recorded: abrogates ERK activation
N=C(N)Nc1cccc(Oc2ccc(N=C(N)Nc3ccc(I)cc3F)cc2)c1 [Compound 10, 1-(2-Fluoro-4-iodophenyl)-2-(4-(3-guanidinophenoxy)phenyl)guanidine dihydrochloride] | – | 8.85 ± 0.55 | –
N=C(N)Nc1cccc(Oc2ccc(N=C(N)Nc3ccc(Br)c(C(F)(F)F)c3)cc2)c1 [Compound 11, 1-(4-Bromo-3-(trifluoromethyl)phenyl)-2-(4-(3-guanidinophenoxy)phenyl)guanidine dihydrochloride] | – | 11 ± 0.64 | –
Cl.N=C(N)Nc1ccc(Oc2cccc(Nc3ccc(Cl)cc3)c2)cc1 [Compound 28, 1-(4-(3-((4-Chlorophenyl)amino)phenoxy)phenyl)guanidine hydrochloride] | 50 to 52 | 7.5 ± 0.05 | –
Cl.N=C(N)Nc1ccc(Oc2cccc(Nc3cccc(C(F)(F)F)c3)c2)cc1 [Compound 29, 1-(4-(3-((3-(Trifluoromethyl)phenyl)amino)phenoxy)phenyl)guanidine hydrochloride] | 93 to 95 | 4.64 ± 0.83 | –
Cl.N=C(N)Nc1ccc(Oc2cccc(Nc3cccc(S(F)(F)(F)(F)F)c3)c2)cc1 [Compound 30, 1-(4-(3-((3-(Pentafluorosulfanyl)phenyl)amino)phenoxy)phenyl)guanidine hydrochloride] | 104 to 106 | 3.23 ± 0.36 | –
N=C(N)Nc1ccc(Oc2cc(F)cc(Nc3ccc(Cl)c(C(F)(F)F)c3)c2)cc1 [Compound 36, 1-(4-(3-((4-Chloro-3-(trifluormethyl)phenyl)amino)-5-fluorophenoxy)phenyl)guanidine hydrochloride] | – | 4.07 ± 0.1 | –
N=C(N)Nc1ccc(Oc2cccc(NC(=N)Nc3ccc(F)c(F)c3)c2)cn1 [Compound 49, 1-(3,4-Di-fluorophenyl)-3-(3-((6-guanidinopyridin-3-yl)oxy)phenyl)guanidine dihydrochloride] | – | 11.6 ± 0.27 | –
N=C(N)Nc1ccc(Oc2cccc(NC(=N)Nc3ccc(I)cc3F)c2)cn1 [Compound 50, 1-(2-Fluoro-4-iodophenyl)-3-(3-((6-guanidinopyridin-3-yl)oxy)phenyl)guanidine dihydrochloride] | – | 8.33 ± 0.32 | –
N=C(N)Nc1ccc(Oc2cccc(NC(=N)Nc3ccc(Br)cc3)c2)cn1 [Compound 51, 1-(4-Bromophenyl)-3-(3-((6-guanidinopyridin-3-yl)oxy)phenyl)guanidine dihydrochloride] | – | 9.37 ± 0.54 | –
Cl.Cl.N=C(N)Nc1ccc(Oc2cccc(NC(=N)Nc3ccc(Br)c(C(F)(F)F)c3)c2)cn1 [Compound 52, 1-(4-Bromo-3-(trifluoromethyl)phenyl)-3-(3-((6-guanidinopyridin-3-yl)oxy)phenyl) guanidine dihydrochloride] | – | 1.53 ± 0.23 | inhibiting ERK phosphorylation; also recorded: abrogates ERK activation
NS(=O)(=O)Nc1ccc(Oc2cccc(Nc3ccc(Cl)c(C(F)(F)F)c3)c2)cc1 [Compound 75] | 124 to 126 | 9.14 ± 0.69 | –
